Drawing on a melting point compilation (Tetko et al.; mined from patent text by program, amines drawn as free bases though some values may be those of a salt), this text covers melting point for 88 compounds.

By melting point is commonly meant the temperature, or range, at which the solid turns liquid.

Residues, ends and D or L forms follow the SMILES beside them. *: point of attachment. Boc = CC(C)(C)OC(=O)* Some results are limits rather than exact numbers.

`O=S(=O)(ON=C1c2ccccc2-c2ccccc21)c1ccc(O)cc1` showed a melting point of 216 to 217 °C.

In turn, `O=C(O)c1cc2ccc3[nH]ccc3c2[nH]1` gave a melting point of 248 to 250 °C.

In the case of `O=C1NC(=O)C(Cc2ccc(NC(=O)c3sc(Nc4ccccc4)c4c3CCc3cnoc3-4)cc2)S1` (stereo not drawn), the melting point was in the range of 151 to 152 °C.

`O=C(O)C1=CC=CC(C(=O)c2ccc(O)c(O)c2)(C(=O)c2ccc(O)c(O)c2)C1` came in with a melting point of 254 to 256 °C.

On to `NC(=O)c1cc(Cl)ccc1SSc1ccc(Cl)cc1C(N)=O`, for which the melting point was in the range of 278 to 282 °C.

Consider `Cc1oc2cc(NS(C)(=O)=O)c(Oc3ccccc3)cc2c(=O)c1C(=O)O`, for which the melting point fell in the range of 238 to 241 °C.

On to `COc1ccc2c(N)c([N+](=O)[O-])sc2c1`, for which the melting point was greater than 250 °C.

In the case of `CC1(c2ccccc2)C(=O)Nc2cc(Cl)ccc2C1=O` (stereo not drawn), the melting point lay in the range of 174 to 175 °C.

Take `O=[N+]([O-])c1ccc(N2CCN(Cc3ccccc3)CC2)cc1`: the melting point fell in the range of 115 to 118 °C.

`Cc1ccc(C(=O)Nc2c(NC(=O)CN3CCN(C)CC3)ccc3c2C(=O)c2ccccc2C3=O)cc1` had a melting point of 214 to 215 °C.

Consider `C[C@H](NC(=O)OCc1ccccc1)C(=O)N[C@@H](C)C(=O)Nc1ccccc1`, for which the melting point was in the range of 219 to 221 °C.

`CSc1ccc(/C=C2/C(C)=C(CCO)c3cc(F)ccc32)cc1` displayed a melting point of 101 to 103 °C.

In the case of `CN(C)C(=O)NNCC1CC2c3cccc4[nH]cc(c34)CC2N(C)C1` (stereo not drawn), the melting point was in the range of 205 to 206 °C.

Compound `Cn1cc(C(=O)C(=O)NC2=CC(=O)OC2)c2ccccc21` gave a melting point of 262 to 264 °C.

The compound `C=C1NC(Nc2ccccc2)=C(C(=O)OCC)C(NN)=C1C#N` displayed a melting point of 174 to 176 °C.

`O=C1CC(c2cccc3ccccc23)c2ccc(O)cc2O1` (stereo not drawn) came in with a melting point of 193 to 196 °C.

`OC1(OCc2ccccc2)C(Cl)=C(Cl)C=CC1OCc1ccccc1` (stereo not drawn) gave a melting point of 74 to 75 °C.

In turn, `Nc1ccc(N=Nc2ccccc2)cc1Cl` yielded a melting point of 152 to 153 °C.

As for `COc1ccc(S(=O)(=O)CC(=O)C(C)C)cc1`, the melting point was in the range of 48 to 49.5 °C.

For `O=C(NCCO)C1CCNCC1`, the melting point lay in the range of 107 to 108 °C.

`O=C(CI)N1CCN(C(=O)CI)CC1` came in with a melting point of 105 to 109 °C.

On to `CC(C)CC(NC(=O)C(Cc1ccc(O)cc1)NC(=O)OC(C)(C)C)C(=O)NCC(=O)O` (stereo not drawn) (Boc-Tyr-Leu-Gly-OH; configuration not given here), for which the melting point lay in the range of 189 to 190 °C.

Turning to `CCc1cc2c(cc1Oc1ccc(C(=O)O)cc1C)C(C)(C)CCC2(C)C`, the melting point was 210 to 211 °C.

As to `O=C1c2ccccc2SCC1(CO)CO`, the melting point fell in the range of 136 to 139 °C.

The compound `O=[N+]([O-])c1cc(Cl)c(Cl)cc1NC1C=CCC1` (stereo not drawn) gave a melting point of 85 to 86 °C.

For the compound `CCCOc1c(OC)cc([C@H]2CC[C@H](c3cc(OC)c(OC)c(OC)c3)O2)cc1S(C)(=O)=O` (relative stereo), the melting point was in the range of 95 to 96 °C.

The compound `N#Cc1cccc(-c2nc(N)cc3cccnc23)c1` displayed a melting point of 102 to 104 °C.

On to `N#Cc1ccc(NC(=O)c2cccc(OCc3ccc(F)c(F)c3)c2)cc1`, for which the melting point was in the range of 173 to 174 °C.

In turn, `CCCCOc1ccc(S(=O)(=O)C2(C(=O)O)CCN(Cc3ccc(OC)cc3)CC2)cc1` displayed a melting point of 173 °C.

In the case of `CC(C)(C)OC(=O)C(F)=CC1C(C(=O)OC(C#N)c2cccc(Oc3ccccc3)c2)C1(C)C` (stereo not drawn), the melting point is 103 °C.

Take `Cn1cc(C(=O)NCc2ccc(Cl)cc2)c(=O)c2cc(CN3CCCSCC3)ccc21`: the melting point lay within 166 to 167 °C.

As for `c1ccc(Oc2ccc(C(c3ccccc3)(c3ccccn3)n3ccnc3)cc2)cc1` (stereo not drawn), the melting point was 137 to 140 °C.

For `Cc1ccc(C(=O)NCN2CCN(c3ncccc3C#N)CC2)cc1`, the melting point was in the range of 134 to 136 °C.

In the case of `N#Cc1cccc(-c2cnco2)n1`, the melting point worked out at 148 °C.

`Clc1ccc(-c2nc(Cl)c3ccccc3n2)cc1` showed a melting point of 166 to 167 °C.

Regarding `N#Cc1cn(CCl)cc1-c1ccccc1Cl`, the melting point was in the range of 97 to 99 °C.

Turning to `O=C(O)c1cccc(C(=O)C=Cc2ccc(OCc3ccccc3)cc2)c1O`, the melting point lay within 174 to 175 °C.

`C[C@H]1[C@H](c2ccccc2)N(C)C(=O)N1C(=O)NC1CCCCC1` (relative stereo) had a melting point of 108 °C.

`O=CCCC12CC(c3ccccc31)c1ccccc12` displayed a melting point of 135 to 140 °C.

In turn, `CCOc1ccccc1OCC1CN=C(N)O1` (stereo not drawn) gave a melting point of 130 °C.

Compound `C#CCN1C(=O)COc2cc(F)c(-n3c(=O)oc4c(c3=O)CCC4)cc21` registered a melting point of 222 to 224 °C.

In the case of `C[C@@H]1Cc2ccsc2[C@H](C)N1CCCCNS(=O)(=O)c1ccc(NS(C)(=O)=O)cc1` (relative stereo), the melting point was in the range of 134 to 136 °C.

In turn, `CC12CCC(O)CC1CCC1C2CCC2(CN3CCOCC3)C(O)C(N3CCCC3)CC12` (stereo not drawn) had a melting point of 218 °C.

Regarding `CN1C(=O)CN=C(c2ccccc2F)c2c1ccc(NC(=O)NCCO)c2Cl`, the melting point lay in the range of 150 to 153 °C.

With `CC(C)(C)C(=O)OCOC(=O)c1cccnc1Nc1cccc(C(F)(F)F)c1`, the melting point was 55 to 56 °C.

As for `CCOC(=O)c1cnn2c(C(=O)N3CCN(C(=O)OC(C)(C)C)CC3)c(Cc3cccc(F)c3C)c(-c3ccccc3)c2c1Cl`, the melting point was 88 to 90 °C.

As to `O=C(O)c1ccc(NCC=Cc2ccccc2)cn1`, the melting point was 178 to 183 °C.

In the case of `CCOC(=O)c1cccc(Cc2c(C(=O)OCC)n(Cc3cc4c(cc3CC)OCO4)c3ccc(OCOC)cc3c2=O)c1`, the melting point fell in the range of 89 to 96 °C.

The compound `COc1cc(N)c(Cl)cc1C(=O)NCC1CCN(CCCCCC(=O)c2c(C)oc3ccccc23)CC1` showed a melting point of 133 to 135 °C.

As for `Nc1ccc2nc3c(nc2c1)OCC1CCCCN31` (stereo not drawn), the melting point lay in the range of 229 to 232 °C.

For the compound `CCC(CC)CCc1nn(C)c2cc(C(=O)OC)ccc12`, the melting point was 91 to 93 °C.

`COc1ccc(NC(=S)c2ccc(N(C)C)cc2)cc1` came in with a melting point of 192 °C.

Regarding `O=C1C=NC(c2cccs2)(C(F)(F)F)O1` (stereo not drawn), the melting point lay in the range of 62 to 65 °C.

Compound `CCOC(=O)NNc1ccc(-c2ccc(F)cc2)nn1` had a melting point of 173 to 174 °C.

`O=[N+]([O-])c1cccc(-c2nc(O)cc3cccnc23)c1`: the melting point was in the range of 262 to 265 °C.

With `COc1cc(Nc2c(C#N)cnc3cc(-c4ccc(C(=O)O)cc4)sc23)c(Cl)cc1Cl`, the melting point was greater than 300 °C.

`O=C(Cc1ccccc1Nc1c(Cl)cccc1Cl)OCc1ccccn1` yielded a melting point of 80 to 81 °C.

In turn, `OC(c1ccccc1)c1cc(Cl)ccc1CNC(=S)NCCc1ccccc1` (stereo not drawn) showed a melting point of 97 °C.

In turn, `Cc1cccc2c1nc(COc1ccc(Cl)cc1)n2CCC(C)C(=O)N1CCCC1` (racemic) showed a melting point of 140 to 142 °C.

`CCCS(=O)(=O)c1sc(C(N)=O)c2c1-c1c(cnn1CC(F)(F)F)CC2` showed a melting point of 141 to 142 °C.

In the case of `COC(=O)c1cc(C(C)(C)C)c(O[Si](C)(C)Oc2c(C(C)(C)C)cc(C(=O)OC)cc2C(C)(C)C)c(C(C)(C)C)c1`, the melting point lay in the range of 197 to 198 °C.

Take `C[C@H](NC(=O)c1c[nH]c2ncc(-c3ccc(C(F)(F)F)cc3)nc12)C(C)(C)C`: the melting point was greater than 300 °C.

`Cc1cccc(-c2ccc(Cl)nn2)c1` gave a melting point of 112 to 113 °C.

Consider `O=[N+]([O-])c1ccc(Oc2ccc(O)c(Cl)c2Cl)cc1`, for which the melting point is 147 to 150 °C.

Compound `CCC(C#N)=C1CCN(c2ccc(N3C[C@H](CNC(C)=S)OC3=O)cc2F)CC1` gave a melting point of 174 to 176 °C.

As for `CS(=O)(=O)Nc1c(-c2ccccc2)c(=O)[nH]c2cc(Cl)ccc12`, the melting point was 222 to 224 °C.

For the compound `COc1ccc(CCCO)cc1OCc1coc(/C=C/c2ccccc2)n1`, the melting point was 126 to 128 °C.

Compound `OCc1cc(COc2ccc(Cl)cc2Cl)cc(OCc2ccccc2)c1` registered a melting point of 85 to 88 °C.

`Nc1c(Br)cc(Nc2ncnc3cnc(N4CCC(N)CC4)nc23)cc1Br` showed a melting point of 204 to 206 °C.

On to `Nc1nc(N2CCOCC2)c2ncn(C3CC(F)C(CO)O3)c2n1` (stereo not drawn), for which the melting point fell in the range of 165 to 167 °C.

`NC(=O)C1CCN(c2ccncc2Cl)CC1` had a melting point of 210 to 212 °C.

Compound `CCCCOc1nc2cccc(C(=O)OC)c2n1Cc1ccccc1-c1ccccc1-c1nnn[nH]1` gave a melting point of 146 to 148 °C.

The compound `O=C(O)C1CCCc2c(-c3ccc(Cl)cc3)noc2CC1` (stereo not drawn) displayed a melting point of 147 to 150 °C.

Consider `CN(C)CCCOc1cc(F)c(-c2c(Cl)nc3nccn3c2NCC(F)(F)F)c(F)c1`, for which the melting point is 52 to 55 °C.

The compound `Cc1ccc(C(=O)C2=C(O)C(=O)N(c3ncc(S(C)(=O)=O)s3)C2c2ccc(C(C)C)cc2)cc1` (stereo not drawn) yielded a melting point of 269 to 271 °C.

`Cc1cc2occ(C=O)c(=O)c2cc1C` returned a melting point of 154 to 156 °C.

In the case of `S=c1[nH]c(-c2ccc(Br)cc2)c(-c2ccc(Br)cc2)[nH]1`, the melting point was found to be 288 °C.

Regarding `Clc1ccc(Cc2ccc(-c3ccccc3)cc2)cc1`, the melting point came out at 96 °C.

In turn, `Cc1c(C)c2c(c(C)c1O)CCC(C)(CCOC(=O)C(C)c1ccc(-c3ccccc3)c(F)c1)O2` (stereo not drawn) yielded a melting point of 85 to 87 °C.

With `CNN1C(=O)CSC1=Cc1cc(C(C)(C)C)c(O)c(C(C)(C)C)c1`, the melting point fell in the range of 151 to 154 °C.

The compound `CC1CC(C)CN(S(=O)(=O)c2cc(Cl)cc(C(=O)O)c2)C1` (stereo not drawn) registered a melting point of 226 to 231 °C.

The compound `CCCCCCCCCCCCCCc1c[nH]c(C=O)c1` had a melting point of 70 to 71 °C.

In turn, `O=C1CNC(=O)N1Cc1ccccc1` came in with a melting point of 139 to 140 °C.

The compound `NS(=O)(=O)c1ccc(-c2cc(-c3nc(-c4ccc(C(F)(F)F)cc4F)cc(C(F)(F)F)n3)ccn2)s1` came in with a melting point of 228 °C.

Regarding `COc1cc(Br)cc2cc(C(C)=O)oc12`, the melting point lay within 107 to 109 °C.

On to `O=C(N[C@H](Cc1cccc(OC(F)(F)C(F)F)c1)[C@@H](O)c1ccc(CO)cc1)c1cccc2c1C=CCCC2` (racemic), for which the melting point fell in the range of 151 to 152 °C.

Compound `CCNc1nc2ccc(CCc3ccc(CN(C)C)o3)cc2o1` returned a melting point of 72 to 73 °C.

`N#CCNc1cn(-c2cccnc2)nc1Cl` yielded a melting point of 141 to 143 °C.
